Experimental findings from patent US20250213561A1, “SELECTIVE HYPOTHALAMUS PERMEABLE HDAC6 INHIBITORS FOR TREATMENT OF LEPTIN-RESISTANT OBESITY” (The Children’s Medical Center Corporation, priority 2022, published 2025) are described below.

Each structure is given as a SMILES string.

Assay [1] relates to HDAC6. The experiment in a line: Ac-tubulin immunoblotting in HEK293 cells. It counts as cell-based.
The next assay deals with p-STAT3^Tyr705. The assay can be described thus: Leptin-stimulated hypothalamic STAT3 Tyr705 phosphorylation in DIO mice. The format is in vivo. The conditions noted are these: 45 minutes after leptin 1 mg/kg i.p. As for the experimental part:
DIO mice were pretreated with ACY775 (10 mg/kg/day, i.p.) or vehicle for 3 days, which was followed by a last injection of ACY775 (or vehicle) in the morning of fourth day. 6 hours later mice were injected with saline or leptin (1 mg/kg, i.p.) and hypothalamus were extracted after 45 minutes following the leptin injection. Representative immunoblots for STAT3^Tyr705 phosphorylation and total STAT3 from the hypothalamus. Quantification of the ratio of p-STAT3^Tyr705 to total-STAT3 signal in the immunoblots. The results were reproduced in three independent experiments. The results were analyzed hourly.
DIO mice were pretreated with ACY775 (10 mg/kg/day, i.p.) or vehicle for 3 days, which was followed by a last injection of ACY775 (or vehicle) in the morning of fourth day. 6 hours later mice were injected with saline or leptin (1 mg/kg, i.p.) and the hypothalamus were extracted after 45 minutes following the leptin injection.
6 hours later mice were injected with saline or leptin (1 mg/kg, i.p.) and hypothalamus were extracted after 45 minutes following the leptin injection. Immunoblots for STAT3^Tyr705 phosphorylation and total STAT3 from the hypothalamus were made to quantify the ratio of p-STAT3^Tyr705 to total-STAT3 signal in the immunoblots. The results were reproduced in two independent experiments.
DIO mice were pretreated with ricolinostat (50 mg/kg/day, i.p.) or vehicle 3 days, which was followed by a last injection of ricolinostat (or vehicle) in the morning of fourth day. 6 hours later mice were injected with saline or leptin (1 mg/kg, i.p.) and the hypothalamus were extracted after 45 minutes following the leptin injection. Immunoblots were performed for STAT3^Tyr705 phosphorylation and total STAT3 from the hypothalamus. The ratio of p-STAT3^Tyr705 to total STAT3 signal in the immunoblots was quantified.

Assay [2] deals with DIO mice. The assay can be described thus: Single dose food intake in 24 h fasted DIO mice. The format is in vivo. The conditions noted are these: ACY775 10 mg/kg, ACY738 50 mg/kg i.p. As for the experimental part: Food intake was analyzed hourly until 3:00 am. […] DEXA scans were performed in two different cohorts.
The subject of another assay is HDAC6-KO DIO mice. The experiment in a line: Chronic treatment of DIO WT versus HDAC6 KO mice. The conditions noted are these: for blood glucose, serum insulin and leptin levels, WT versus HDAC6 KO / fat mass and fat %, WT versus HDAC6 KO / food intake, WT versus HDAC6 KO / glucose tolerance and insulin sensitivity (GTT, ITT), WT versus HDAC6 KO / lean mass, WT versus HDAC6 KO / body weight, WT versus HDAC6 KO: DIO mice; for body weight, WT versus HDAC6 KO: 3 weeks, ACY775 10, ACY738 50, Tubastatin A 25 mg/kg/day i.p. The format is in vivo.

Assay [3] concerns DIO mice. The assay can be described thus: Acute leptin co-treatment in DIO mice (body weight, food intake 15 h). It counts as in vivo. The conditions noted are these: for body weight, leptin after pre-treatment with inhibitor: 3 days pre-treatment. The procedure: DIO mice were pretreated with ACY775 (10 mg/kg/day, i.p.) or vehicle for 3 days, which was followed by co-treatment with ACY775 (or vehicle) and leptin (1 mg/kg, i.p.) (or saline) (n=9 for each group), % change in body weight 15 h after leptin treatment, food intake (g) during the 15 h period after leptin treatment. The results in were reproduced in two independent experiments.
Diet induced obese (DIO) mice were pretreated with ACY775 (10 mg/kg/day, i.p.) or vehicle for 3 days, which was followed by co-treatment with ACY775 (or vehicle) and leptin (1 mg/kg, i.p.) (or saline) (n=9 for each group). Mice were evaluated for % change in body weight 15 h after leptin treatment, and food intake (g) during the 15 h period after leptin treatment.
DIO mice were pretreated with ricolinostat (25 mg/kg/day, i.p.) or vehicle for 3 days, which was followed by co-treatment with ricolinostat (or vehicle) and leptin (1 mg/kg, i.p.) (or saline) (n=32 for each group). Change in body weight 15 h after leptin treatment, and food intake (g) during the 15 h period after leptin treatment were determined. The results were reproduced in two independent experiments.

The target in assay [4] is HDAC6 (Mus musculus (Mouse), UniProt Q9Z2V5). The assay can be described thus: LepRb acetyl-lysine immunoblotting in transfected HEK293 cells. It counts as cell-based. The conditions noted are these: 200 nM, 0.5-3 h. As for the experimental part:
HEK293 cells were transfected with the plasmids and were treated with vehicle or ACY775. Subsequently Flag immunoprecipitation was used to pull down LepRb followed by Ac^Lys or Flag immunoblotting.
To test whether HDAC6 can deacetylate LepRb, HEK293 cells were transfected with plasmids (LepRb-Flag, HA-p300 and HDAC6-myc). LepRb was immunoprecipitated by Flag antibodies, which was followed by acetyl-lysine (Ac^Lys) or immunoblottings.
Next, cells were transfected with plasmids (LepRb-Flag, HA-p300 and HDAC6-myc) and subsequently treated with ACY775 ([…]) for 0.5, 1, 2 and 3 h. […] Next, to investigate whether HDAC6 has any effect on LepRb tyrosine phosphorylation, which is indicative of LepRb activation, HEK 293 cells were transfected with LepRb and HDAC6-Myc plasmids in the indicated order and the cells stimulated with leptin (200 ng/ml) for 10 and 60 minutes. The Flag immunoprecipitates were exposed to phospho-tyrosine (p^Tyr) immunoblotting.

[5] abbreviates: leptin 1 mg/kg i.p., 15 h period.

Chain of HDAC6 (Mus musculus (Mouse), UniProt Q9Z2V5) (Q9Z2V5 whole entry): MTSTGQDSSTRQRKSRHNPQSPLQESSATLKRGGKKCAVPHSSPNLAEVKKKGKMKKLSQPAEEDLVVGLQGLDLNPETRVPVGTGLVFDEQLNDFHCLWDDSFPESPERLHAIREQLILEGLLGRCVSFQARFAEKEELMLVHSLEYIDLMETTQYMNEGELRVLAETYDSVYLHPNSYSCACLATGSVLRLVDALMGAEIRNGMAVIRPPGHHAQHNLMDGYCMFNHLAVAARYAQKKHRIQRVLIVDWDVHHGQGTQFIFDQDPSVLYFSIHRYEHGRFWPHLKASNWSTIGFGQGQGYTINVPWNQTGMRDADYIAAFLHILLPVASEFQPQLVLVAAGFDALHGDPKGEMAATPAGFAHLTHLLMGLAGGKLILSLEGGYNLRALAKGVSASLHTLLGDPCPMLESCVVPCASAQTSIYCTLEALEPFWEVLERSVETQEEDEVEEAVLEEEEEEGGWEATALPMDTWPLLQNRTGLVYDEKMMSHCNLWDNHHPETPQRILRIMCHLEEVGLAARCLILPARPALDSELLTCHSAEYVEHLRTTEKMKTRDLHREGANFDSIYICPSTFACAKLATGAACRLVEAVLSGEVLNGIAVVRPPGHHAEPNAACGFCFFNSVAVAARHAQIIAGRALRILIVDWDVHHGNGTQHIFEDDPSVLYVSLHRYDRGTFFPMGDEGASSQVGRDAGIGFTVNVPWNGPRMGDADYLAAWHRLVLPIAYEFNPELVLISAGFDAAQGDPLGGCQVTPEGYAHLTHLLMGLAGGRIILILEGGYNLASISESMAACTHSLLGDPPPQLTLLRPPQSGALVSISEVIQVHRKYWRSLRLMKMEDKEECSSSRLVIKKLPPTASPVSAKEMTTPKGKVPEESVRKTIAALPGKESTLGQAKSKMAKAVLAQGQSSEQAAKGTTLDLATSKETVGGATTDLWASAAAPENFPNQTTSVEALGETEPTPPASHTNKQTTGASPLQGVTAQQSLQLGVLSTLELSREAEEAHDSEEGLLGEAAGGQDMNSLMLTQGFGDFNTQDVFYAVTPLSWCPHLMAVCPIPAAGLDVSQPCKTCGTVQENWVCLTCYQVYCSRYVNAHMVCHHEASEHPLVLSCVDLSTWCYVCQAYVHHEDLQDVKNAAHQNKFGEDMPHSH

`O=C(NO)c1cnc(NC2(c3ccccc3)CC2)nc1` [ACY738]: the “tubulin acetylation (HDAC6 inhibitor activity in cells)” value in the assay with HDAC6 [1] is recorded as “inhibits the HDAC6 activity”. For the same compound, the “leptin-stimulated hypothalamic p-STAT3^Tyr705” value with p-STAT3^Tyr705 was “substantially increased”. Further, the “food intake after a single dose” value in the assay on DIO mice [2] was “significantly reduced/blocked the food intake”. Further, the “body weight in HDAC6 KO mice” value in the assay on HDAC6-KO DIO mice (DIO HDAC6 KO mice) is recorded as “slight decrease”. Also, in the assay on HDAC6-KO DIO mice, the “blood glucose, serum insulin and leptin levels, WT versus HDAC6 KO” value was “all significantly higher in the ACY738-treated HDAC6 KO group”; the “fat mass and fat %, WT versus HDAC6 KO” value is listed as “significantly lower in the wt group compared to the HDAC6 KO group”; the “food intake, WT versus HDAC6 KO” value is “significantly higher in the HDAC6 KO group”; the “glucose tolerance and insulin sensitivity (GTT, ITT), WT versus HDAC6 KO” value was “did not improve glucose tolerance and increase insulin sensitivity in the HDAC6 KO mice”. Also, in the assay with HDAC6-KO DIO mice, the “lean mass, WT versus HDAC6 KO” value was “not different” and the “body weight, WT versus HDAC6 KO” value was “major difference”. Besides, in the assay with DIO mice [3] (leptin 1 mg/kg i.p., 15 h), the “body weight, leptin after pre-treatment with inhibitor” value was “significantly augmented the acute leptin-induced reduction in body weight and food intake”. Moreover, in the assay with DIO mice [3] (setting [5]), the “food intake, leptin together with inhibitor” value is “significantly augmented the acute leptin-induced reduction in body weight and food intake”.
Take `O=C(NO)c1cnc(NC2(c3cccc(F)c3)CCCCC2)nc1` [ACY775, 2-[[1-(3-fluorophenyl)cyclohexyl]amino]-N-hydroxy-5-pyrimidinecarboxamide]: the “tubulin acetylation (HDAC6 inhibitor activity in cells)” value in the assay with HDAC6 [1] was “increases tubulin acetylation”. In addition, the “leptin-stimulated hypothalamic p-STAT3^Tyr705” value in the assay with p-STAT3^Tyr705 is recorded as “increased significantly”. Also, the “food intake after a single dose” value with DIO mice [2] is reported as “significantly reduced/blocked the food intake”. Besides, at HDAC6 [4], the “deacetylation of LepRb” value was “can completely block deactylation of LepRb”. In the assay on HDAC6-KO DIO mice, the “blood glucose, serum insulin and leptin levels, WT versus HDAC6 KO” value is “all significantly higher in the ACY775-treated HDAC6 KO group”; the “fat mass and fat %, WT versus HDAC6 KO” value was “significantly lower in the wt group compared to the HDAC6 KO group”; the “food intake, WT versus HDAC6 KO” value is “blocked in the HDAC6 KO mice”; the “glucose tolerance and insulin sensitivity (GTT, ITT), WT versus HDAC6 KO” value was “could not increase glucose tolerance and insulin sensitivity in the HDAC6 KO mice”. In the assay on HDAC6-KO DIO mice, the “lean mass, WT versus HDAC6 KO” value is on record as “not different” and the “body weight, WT versus HDAC6 KO” value was “highly significant decrease in the bodyweight of the WT DIO mice when compared to HDAC6 KO DIO mice”. Further, the “body weight, agent alone” value in the assay on DIO mice [3] (15 h, ACY775 10 mg/kg, ricolinostat 25 mg/kg, leptin 1 mg/kg i.p.) is “significantly decreased the bodyweight”. Besides, the “food intake, agent alone” value in the assay on DIO mice [3] (15 h period) is recorded as “reduced the food intake”. The “body weight, leptin after pre-treatment with inhibitor” value with DIO mice [3] (leptin 1 mg/kg i.p., 15 h) is “further reduction in bodyweight”. For the same compound, the “food intake, leptin together with inhibitor” value in the assay on DIO mice [3] (setting [5]) is “further augmented the negative effect of leptin on food intake”.
